In ChEMBL document CHEMBL3879911, “Heteroaryl compounds useful as inhibitors of E1 activating enzymes” (2008) one finds IC50 data, which are given here for 60 molecules.

pIC50: −log10 of the molar value.

For orientation: pIC50 means −log10 of the IC50, conventionally taken in molar units.

This assay addresses T1, NEDD8 activating enzyme (Homo sapiens, UniProt Q8TBC4).
T1 sequence (Q8TBC4 whole entry): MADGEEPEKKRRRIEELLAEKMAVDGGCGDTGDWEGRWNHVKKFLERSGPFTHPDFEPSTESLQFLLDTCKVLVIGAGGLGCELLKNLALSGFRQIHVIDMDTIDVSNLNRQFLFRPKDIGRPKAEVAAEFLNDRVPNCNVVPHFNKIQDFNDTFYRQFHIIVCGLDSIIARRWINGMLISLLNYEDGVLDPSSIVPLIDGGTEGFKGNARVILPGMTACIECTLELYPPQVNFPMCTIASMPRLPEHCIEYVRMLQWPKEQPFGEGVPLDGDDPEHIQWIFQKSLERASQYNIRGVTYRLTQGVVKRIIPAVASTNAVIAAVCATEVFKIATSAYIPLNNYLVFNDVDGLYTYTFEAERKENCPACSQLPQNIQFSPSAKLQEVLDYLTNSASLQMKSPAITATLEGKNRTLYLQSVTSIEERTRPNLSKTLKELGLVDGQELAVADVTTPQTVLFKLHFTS
T1 sequence (Q13564 whole entry): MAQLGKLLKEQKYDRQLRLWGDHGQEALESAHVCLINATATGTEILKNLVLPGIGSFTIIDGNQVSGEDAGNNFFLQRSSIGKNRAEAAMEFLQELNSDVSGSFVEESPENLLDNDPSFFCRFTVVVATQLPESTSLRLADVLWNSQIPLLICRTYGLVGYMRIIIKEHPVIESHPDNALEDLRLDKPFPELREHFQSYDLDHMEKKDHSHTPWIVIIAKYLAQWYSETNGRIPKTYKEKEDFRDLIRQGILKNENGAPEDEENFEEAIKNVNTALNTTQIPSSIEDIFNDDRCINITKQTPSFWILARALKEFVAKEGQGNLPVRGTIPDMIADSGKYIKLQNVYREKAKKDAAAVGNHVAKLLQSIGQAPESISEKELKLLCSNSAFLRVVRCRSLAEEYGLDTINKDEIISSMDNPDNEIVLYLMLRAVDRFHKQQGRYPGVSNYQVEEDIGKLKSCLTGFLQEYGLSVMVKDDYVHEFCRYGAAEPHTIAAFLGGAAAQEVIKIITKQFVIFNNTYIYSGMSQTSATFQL
The assay is described as follows: Inhibition of recombinant human NAEalpha/N-terminal His-tagged NAEbeta expressed in baculovirus infected insect Sf9 cells using N-terminal FLAG tagged Nedd8 as substrate incubated for 105 mins in presence of N-terminal GST-tagged Ubc12 by FRET assay.
In the case of `CC(C)(C)c1nc2c(N[C@@H]3C[C@@H](COS(N)(=O)=O)[C@@H](O)C3)ncnc2[nH]1`, the negative logarithm of the IC50 (pIC50) is at least 6.30.

`NS(=O)(=O)OC[C@H]1C[C@@H](Nc2cc(N[C@H]3CCCc4ccccc43)ncn2)[C@H](O)[C@@H]1O`: the negative-log IC50 (pIC50) was at least 6.30. `CO[C@H]1c2ccccc2C[C@H]1Oc1cc(O[C@@H]2C[C@@H](COS(N)(=O)=O)[C@@H](O)C2)ncn1`: the pIC50 was 5.00 to 6.30. For the molecule `NS(=O)(=O)OC[C@H]1C[C@@H](NC(=O)c2ccccn2)[C@H](O)[C@@H]1O`, the negative logarithm of the IC50 (pIC50) is under 5.00.

Consider `NS(=O)(=O)OC[C@H]1C[C@@H](Nc2cc(NCC3CCCCC3)ncn2)[C@H](O)[C@@H]1O`, for which the pIC50 is at least 6.30. For `Cc1nc(N)cc(N[C@@H]2C[C@H](COS(N)(=O)=O)[C@@H](O)[C@H]2O)n1`, the negative-log IC50 (pIC50) was under 5.00.

For `NS(=O)(=O)OC[C@H]1C[C@@H](Nc2cc(N[C@H]3CCc4cc(F)c(F)cc43)ncn2)[C@H](O)[C@@H]1O`, the pIC50 is at least 6.30. The same measure for `NS(=O)(=O)OC[C@@H]1C[C@@H](Oc2ncnc3c2ncn3Cc2ccccc2)C[C@@H]1O`: 5.00 to 6.30; for `COc1cccc(OC)c1-c1nc2c(N[C@@H]3C[C@@H](COS(N)(=O)=O)[C@@H](O)C3)ncnc2[nH]1`: at least 6.30.

Turning to `NS(=O)(=O)OC[C@@H]1C[C@@H](Oc2ccncn2)C[C@@H]1O`, the pIC50 was under 5.00.

For the molecule `NS(=O)(=O)OC[C@@H]1C[C@@H](Oc2cc(Cc3ccccc3)ncn2)C[C@@H]1O`, the pIC50 is 5.00 to 6.30. Turning to `NS(=O)(=O)OC[C@@H]1C[C@@H](Oc2ncnc3nc(-c4ccc(N5CCCC5)c5ccccc45)[nH]c23)C[C@@H]1O`, the pIC50 was at least 6.30.

In the case of `CC1(C)C[C@H](Nc2cc(N[C@@H]3C[C@@H](COS(N)(=O)=O)[C@@H](O)C3)ncn2)c2ccccc21`, the pIC50 is at least 6.30. The same measure for `NS(=O)(=O)OC[C@@H]1C[C@@H](Nc2ncnc3[nH]c(-c4cccc(Cl)c4)nc23)C[C@@H]1O`: at least 6.30; for `NS(=O)(=O)OC[C@@H]1C[C@@H](Oc2cc(-c3ccccc3)ncn2)C[C@@H]1O`: 5.00 to 6.30.

Take `NS(=O)(=O)OC[C@H]1C[C@@H](Nc2cc(N[C@@H]3CCc4ccccc43)ncn2)[C@H](O)[C@@H]1O`: the negative-log IC50 (pIC50) was at least 6.30. The same measure for `NS(=O)(=O)OC[C@H]1C[C@@H](Nc2cc(N[C@H]3CCc4cc(Cl)ccc43)ncn2)[C@H](O)[C@@H]1O`: at least 6.30. The result for `NS(=O)(=O)OC[C@@H]1C[C@@H](Nc2cc(N[C@H]3CCc4ccccc43)ncn2)C[C@@H]1O` reads at least 6.30; that for `CN(C)c1ccc(-c2nc3c(N[C@@H]4C[C@@H](COS(N)(=O)=O)[C@@H](O)C4)ncnc3[nH]2)c2ccccc12`, at least 6.30; that for `NS(=O)(=O)OC[C@@H]1C[C@@H](Oc2ncnc3[nH]c(-c4ccccc4)nc23)C[C@@H]1O`, at least 6.30. On to `Cn1c(-c2ccccc2)nc2c(N[C@@H]3C[C@@H](COS(N)(=O)=O)[C@@H](O)C3)ncnc21`, for which the pIC50 is at least 6.30.

Regarding `Cc1nc(N[C@H]2CCc3ccccc32)cc(N[C@@H]2C[C@H](COS(N)(=O)=O)[C@@H](O)[C@H]2O)n1`, the pIC50 is at least 6.30. The same measure for `NS(=O)(=O)OC[C@@H]1C[C@@H](Nc2ncnc3[nH]c(C4CCCCC4)nc23)C[C@@H]1O`: at least 6.30.

As to `NS(=O)(=O)OC[C@@H]1C[C@@H](Nc2ncnc3[nH]c(-c4ccccc4OC(F)(F)F)nc23)C[C@@H]1O`, the negative logarithm of the IC50 (pIC50) was at least 6.30.

In the case of `Cc1c(N[C@H]2CCc3ccccc32)ncnc1O[C@@H]1C[C@@H](COS(N)(=O)=O)[C@@H](O)C1`, the negative logarithm of the IC50 (pIC50) was under 5.00.

For `NS(=O)(=O)OC[C@@H]1C[C@@H](Oc2cc(N3CCc4ccccc4C3)ncn2)C[C@@H]1O`, the pIC50 is under 5.00. For the molecule `CO[C@H]1CC(C)(C)c2ccccc2[C@H]1Nc1cc(O[C@@H]2C[C@@H](COS(N)(=O)=O)[C@@H](O)C2)ncn1`, the negative-log IC50 (pIC50) is at least 6.30.

As to `NS(=O)(=O)OC[C@@H]1C[C@@H](Nc2ncnc3[nH]c(-c4ccccc4)cc23)C[C@@H]1O`, the pIC50 is at least 6.30.

`CN(C)c1ccccc1-c1nc2c(N[C@@H]3C[C@@H](COS(N)(=O)=O)[C@@H](O)C3)ncnc2[nH]1`: the negative logarithm of the IC50 (pIC50) is at least 6.30. The same measure for `NS(=O)(=O)OC[C@@H]1C[C@@H](Nc2ncnc(N[C@H]3CCc4ccccc43)n2)C[C@@H]1O`: at least 6.30.

Take `Cc1cccc(-c2nc3c(N[C@@H]4C[C@@H](COS(N)(=O)=O)[C@@H](O)C4)ncnc3[nH]2)c1C`: the negative-log IC50 (pIC50) is at least 6.30. The same measure for `NS(=O)(=O)OC[C@H]1C[C@@H](Nc2ccnc(NCC3CCCCC3)n2)[C@H](O)[C@@H]1O`: 5.00 to 6.30.

Consider `CC1(C)C[C@H](Nc2ncnc(N[C@@H]3C[C@@H](COS(N)(=O)=O)[C@@H](O)C3)n2)c2ccccc21`, for which the pIC50 was at least 6.30. The same measure for `CO[C@H]1Cc2ccccc2[C@H]1Nc1cc(O[C@@H]2C[C@@H](CNS(N)(=O)=O)[C@@H](O)C2)ncn1`: at least 6.30; for `NS(=O)(=O)OC[C@H]1C[C@@H](Nc2cc(N[C@H]3CCC[C@@H]3OCc3ccccc3)ncn2)[C@H](O)[C@@H]1O`: 5.00 to 6.30; for `CO[C@H]1Cc2ccccc2[C@H]1Nc1ncnc(N[C@@H]2C[C@@H](COS(N)(=O)=O)[C@@H](O)C2)n1`: at least 6.30.

`CO[C@@H]1CCc2ccccc2[C@@H]1Nc1cc(O[C@@H]2C[C@@H](COS(N)(=O)=O)[C@@H](O)C2)ncn1`: the pIC50 was at least 6.30.

Consider `CC1(C)C[C@H](Nc2cc(O[C@@H]3C[C@@H](COS(N)(=O)=O)[C@@H](O)C3)ccn2)c2ccc(Cl)cc21`, for which the pIC50 was 5.00 to 6.30. Turning to `NS(=O)(=O)OC[C@@H]1C[C@@H](Nc2ncnc3nc(-c4ccc(OCc5ccccc5)cc4)[nH]c23)C[C@@H]1O`, the pIC50 is at least 6.30. As to `NS(=O)(=O)OC[C@H]1C[C@@H](Nc2cc(N[C@H]3CCc4ccccc43)ncn2)[C@H](O)[C@@H]1O`, the pIC50 was at least 6.30. Regarding `CN(Cc1ccccc1)c1cc(N[C@@H]2C[C@H](COS(N)(=O)=O)[C@@H](O)[C@H]2O)ncn1`, the pIC50 was under 5.00. The same measure for `NS(=O)(=O)OC[C@H]1C[C@@H](Nc2cc(N[C@H]3CCc4c(F)ccc(F)c43)ncn2)[C@H](O)[C@@H]1O`: at least 6.30; for `NS(=O)(=O)OC[C@@H]1C[C@@H](Nc2ncnc3[nH]c(-c4ccccc4C(F)(F)F)nc23)C[C@@H]1O`: at least 6.30; for `NS(=O)(=O)OC[C@H]1C[C@@H](Nc2nc(N[C@H]3CCc4ccccc43)ncc2F)[C@H](O)[C@@H]1O`: 5.00 to 6.30.

As to `NS(=O)(=O)OC[C@H]1C[C@@H](Nc2cc(Nc3cccc4c3CCCC4)ncn2)[C@H](O)[C@@H]1O`, the negative logarithm of the IC50 (pIC50) was at least 6.30. The result for `NS(=O)(=O)OC[C@@H]1C[C@@H](Oc2cc(N[C@H]3CCCc4ccccc43)ncn2)C[C@@H]1O` reads at least 6.30; that for `NS(=O)(=O)OC[C@@H]1C[C@@H](Oc2cc(OCc3ccc4ccccc4c3)ncn2)C[C@@H]1O`, 5.00 to 6.30. Turning to `NS(=O)(=O)OC[C@@H]1C[C@@H](Nc2cc(CCc3ccccc3)ncn2)C[C@@H]1O`, the pIC50 was 5.00 to 6.30. Consider `NS(=O)(=O)OC[C@@H]1C[C@@H](Nc2c(Cl)cnc3[nH]c(-c4cccc5ccccc45)nc23)C[C@@H]1O`, for which the negative-log IC50 (pIC50) is at least 6.30. Regarding `NS(=O)(=O)OC[C@@H]1C[C@@H](O)[C@H](Nc2cc(N[C@H]3CCc4ccccc43)ncn2)C1`, the pIC50 was under 5.00.

Take `CO[C@H]1Cc2ccccc2[C@H]1Nc1cc(N[C@@H]2C[C@@H](COS(N)(=O)=O)[C@@H](O)C2)ncn1`: the negative-log IC50 (pIC50) is at least 6.30.

For the molecule `NS(=O)(=O)OC[C@@H]1C[C@@H](Oc2cc(N[C@H]3CCc4ccccc43)ncn2)C[C@@H]1O`, the pIC50 was at least 6.30. For `CN(c1cc(N[C@H]2CCc3ccccc32)ncn1)[C@@H]1C[C@H](COS(N)(=O)=O)[C@@H](O)[C@H]1O`, the pIC50 was at least 6.30. The same measure for `NS(=O)(=O)OC[C@@H]1C[C@@H](Nc2ncnc(N[C@@H]3c4ccccc4CC3(F)F)n2)C[C@@H]1O`: at least 6.30. Regarding `NS(=O)(=O)OC[C@H]1C[C@@H](Nc2ccnc(C(=O)N3CCc4ccccc43)c2)[C@H](O)[C@@H]1O`, the negative logarithm of the IC50 (pIC50) was under 5.00. The result for `NS(=O)(=O)OC[C@@H]1C[C@@H](Nc2ncnc3[nH]c(Cc4ccccc4)nc23)C[C@@H]1O` reads at least 6.30; that for `NS(=O)(=O)OC[C@@H]1C[C@@H](Nc2ncnc3[nH]c(-c4ccccc4-c4ccccc4)nc23)C[C@@H]1O`, 5.00 to 6.30. `NS(=O)(=O)OC[C@@H]1C[C@@H](Nc2ncnc3[nH]c(-c4cccc(-c5ccccc5)c4)nc23)C[C@@H]1O`: the pIC50 was at least 6.30. Consider `COc1ccc2c(c1)[C@H](Nc1cc(O[C@@H]3C[C@@H](COS(N)(=O)=O)[C@@H](O)C3)ncn1)[C@H](OC)CC2`, for which the pIC50 is 5.00 to 6.30. The result for `NS(=O)(=O)OC[C@@H]1C[C@@H](Nc2ncnc3nc(-c4cccc5cccnc45)[nH]c23)C[C@@H]1O` reads at least 6.30.
